Measured values reported in the supplement of paper PMC10307832.

Tests used:
Test in all cases: relative viability (nuclei count vs DMSO), 5 days (fraction); higher = more cells survive
[1] = compound: C[C@]1(c2nc3c(C(N)=O)cccc3[nH]2)CCCN1 [Veliparib] + CC(C)C[C@H](NC(=O)[C@H](Cc1ccccc1)NC(=O)c1cnccn1)B(O)O [Bortezomib] (partner 0.002 µM)
How it was run: (§1)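 Relative viability divides the nuclei count in treated wells by that in vehicle wells. Lung cancer cell lines were seeded in 1536-well plates, dosed by pin tool the next day, and fixed and stained after 5 days in one step with final 0.05% Triton X-100, 1% formaldehyde and 1 ug/ml Hoechst. Dosing was a single drug or a fixed anchor-drug dose plus five library-drug doses (not always all listed) in √10 steps, and values are medians of duplicate plates imaged at 4×.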

[2] = compound: COC1=CC=C(C=C1)CN2C=CC3=C2C=C(C=C3)C(=O)NO + Cc1nc(NC(=O)N2CCC[C@H]2C(N)=O)sc1-c1ccnc(C(C)(C)C(F)(F)F)c1 [Alpelisib] (partner 2 µM)
How it was run: as §1

[3] = compound: COC1=CC=C(C=C1)CN2C=CC3=C2C=C(C=C3)C(=O)NO
How it was run: (§2)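 Vehicle-anchored 1536-well plates of lung cancer cell lines, held overnight at 37 °C, were pinned with five library-drug doses (not always all listed) spaced by √10. No medium change followed over the next 5 days, after which the cells were fixed, permeabilised and Hoechst-stained together and imaged at 4×. Nuclei were counted with MetaXpress, and viability is treated-well nuclei over vehicle-well nuclei, taken as a median across plates. Plates passed with control CV below 25% and at least one doubling.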

[4] = compound: C[C@]1(c2nc3c(C(N)=O)cccc3[nH]2)CCCN1 [Veliparib]
How it was run: as §2

Row | Cell Line | relative viability ([1]; first compound 0.02 µM) | relative viability ([1]; first compound 0.06325 µM) | relative viability ([1]; first compound 0.2 µM) | relative viability ([1]; first compound 0.6325 µM) | relative viability ([1]; first compound 2 µM) | relative viability ([2]; first compound 0.08 µM) | relative viability ([2]; first compound 0.253 µM) | relative viability ([2]; first compound 0.8 µM) | relative viability ([2]; first compound 2.53 µM) | relative viability ([2]; first compound 8 µM) | relative viability ([3]; 0.08 µM) | relative viability ([3]; 0.253 µM) | relative viability ([3]; 0.8 µM) | relative viability ([3]; 2.53 µM) | relative viability ([3]; 8 µM) | relative viability ([4]; 0.02 µM) | relative viability ([4]; 0.06325 µM) | relative viability ([4]; 0.2 µM) | relative viability ([4]; 0.6325 µM) | relative viability ([4]; 2 µM)
1 | NCI-H23 | 0.887 | 1.04 | 1.02 | 0.883 | 1.08 | 0.535 | 0.834 | 0.643 | 0.737 | 0.756 | 0.776 | 1.06 | 1.09 | 0.968 | 0.721 | 0.89 | 0.77 | 0.948 | 0.951 | 0.96
2 | Calu-6 | 1.1 | 0.966 | 0.926 | 1.02 | 0.859 | 0.859 | 0.881 | 0.897 | 1.02 | 0.815 | 0.825 | 1.01 | 1.03 | 0.998 | 0.977 | 1 | 0.968 | 0.935 | 0.905 | 1
3 | NCI-H1623 |  |  |  |  |  |  |  |  |  |  | 0.812 | 0.975 | 0.999 | 0.982 | 0.897 | 0.762 | 0.883 | 0.959 | 1.01 | 0.984
4 | LC-2-ad |  | 0.987 | 0.985 | 0.944 | 1.05 | 0.857 | 0.861 | 0.833 | 0.973 | 0.877 | 0.937 | 0.977 | 1.04 | 0.976 | 0.963 | 0.608 | 0.944 | 0.977 | 0.941 | 0.867
5 | HARA | 1.13 | 1.1 | 0.995 | 1.11 | 1.16 | 0.149 | 0.851 | 0.765 | 0.917 | 0.693 |  | 1.02 | 1.08 | 0.89 | 0.884 | 0.858 | 0.939 | 0.955 | 0.979 | 0.915
6 | NCI-H1993 | 0.994 | 1.31 | 1.13 | 1.03 | 1.06 | 0.613 | 0.671 | 0.669 | 0.745 | 0.795 | 0.932 | 0.9 | 1.06 | 0.969 | 0.888 | 0.693 | 0.883 | 0.87 | 1.05 | 0.929
7 | SK-MES-1 |  |  |  |  |  | 0.924 | 0.946 | 0.861 | 0.76 | 0.823 | 1.07 | 1.02 | 0.988 | 1.03 | 0.997 | 1.03 | 0.939 | 0.977 | 0.961 | 1.03
8 | NCI-H1944 |  |  |  |  |  |  | 0.897 | 0.731 | 0.774 | 0.795 |  | 0.986 | 0.987 | 0.947 | 0.955 | 0.878 | 0.961 | 0.765 | 0.789 | 0.894
9 | NCI-H2170 |  |  |  |  |  | 0.714 | 0.941 | 0.837 | 0.793 | 0.838 | 0.973 | 0.994 | 0.977 | 0.98 | 0.906 | 0.989 | 0.954 | 0.967 | 0.96 | 0.991
10 | ChaGo-K-1 |  | 0.863 | 1.09 | 1.05 | 0.804 |  |  |  |  |  |  | 1.04 | 1.01 | 1 | 0.834 | 0.842 | 0.978 | 0.966 | 0.965 | 0.775
11 | NCI-H2342 |  |  |  |  |  |  |  |  |  |  | 0.946 | 0.973 | 0.992 | 0.997 | 0.827 | 0.966 | 0.968 | 0.94 | 0.873 | 0.979
12 | NCI-H1650 |  | 0.195 | 0.204 | 0.2 | 0.182 |  |  |  |  |  | 0.787 | 0.87 | 1.01 | 0.946 | 0.689 |  | 0.846 | 1.01 | 0.875 | 0.874
13 | NCI-H522 |  |  |  |  |  |  |  |  |  |  |  | 0.946 | 0.968 | 0.869 | 0.793 | 0.947 | 0.958 | 0.912 | 1.07 | 1.04
14 | NCI-H358 |  |  |  |  |  |  | 0.941 | 0.985 | 0.919 | 0.829 |  | 0.945 | 1.09 | 0.976 | 0.746 | 0.762 | 0.856 | 0.924 | 0.941 | 0.94
15 | NCI-H1648 |  |  |  |  |  |  |  |  |  |  | 1 | 0.875 | 1.01 | 0.991 | 0.735 | 1.08 | 0.94 | 0.738 | 0.944 | 0.81
16 | SW 900 |  |  |  |  |  |  |  |  |  |  | 0.862 | 0.802 | 0.934 | 0.941 | 0.732 |  | 0.645 | 0.909 | 0.807 | 0.777
17 | NCI-H1395 |  |  |  |  |  | 0.708 | 1.1 | 1.11 | 0.979 | 0.967 | 0.752 | 0.915 | 0.877 | 0.963 | 0.753 | 0.594 | 0.655 | 0.791 | 0.817 | 0.692
18 | NCI-H1793 |  |  |  |  |  | 0.626 | 0.874 | 0.786 | 0.546 | 0.728 |  | 1 | 1.02 | 1.03 | 1.01 | 0.881 | 0.923 | 0.904 | 0.865 | 0.932
19 | A549 |  |  |  |  |  | 0.643 | 0.812 | 0.743 | 0.749 | 0.58 | 0.905 | 1.01 | 0.953 | 0.986 | 0.895 | 1 | 0.957 | 0.962 | 0.9 | 0.989
20 | LK-2 |  |  |  |  |  |  | 1.11 | 0.896 | 1.13 | 0.907 |  | 1.03 | 1.07 | 0.992 | 0.949 | 0.861 | 1.06 | 1.08 | 0.916 | 0.964
